Measured values from US20240409934A1, “FOXO1-TARGETED THERAPY FOR THE TREATMENT OF CANCER” (BOARD OF REGENTS, THE UNIVERSITY OF TEXAS SYSTEM, priority 2021, published 2024).

Columns and labels:
Type in all cases: cell-based
[1] = tested on: BT549 cells; test: Gene expression by qRT-PCR (TUBB reference)
Protocol: (§1) Cell culture and drug treatments. Cell lines were obtained from ATCC (American Type Culture Collection, Manassas, VA) and grown under standard conditions (5% CO2, 10% FBS (fetal bovine serum), with 5% antifungal/antibacterial). Cell lines were tested for Mycoplasma using the MycoAlert Mycoplasma Detection Kit (Lonza, Basel Switzerland, cat: LT07-218); all experiments were done with mycoplasma negative cells. U87MG cells were propagated in MEM (Minimal Essential Medium). BT549 and DBTRG cells were propagated in RPMI (Roswell Park Memorial Institute 1640 Medium). LN18, U118MG, A172 and LN229 cells were propagated in DMEM (Dulbecco's Modified Eagle Medium). Neurosphere/cancer stem cell cultures for U87MG and BT549 cell lines were plated with 40,000 cells per mL in 3D Tumorsphere Medium XF (Sigma cat: C-28070, Burlington, MA). BT549 cancer stem cell cultures were supplemented with 1XB27 XenoFree CTS (Gibco/Thermo Fisher Waltham, MA, USA). AS1842856 was purchased from Calbiochem (Danvers, MA) and utilized at 200 nM, 500 nM and 1 μM final concentrations as indicated. AS1708727 was purchased from MedChem Express (Monmouth Junction, NJ) and was used at 0.5 μM, 1.0 µM and 2.0 μM concentrations. 5-aza-2'-deoxycytidine (5-AZA) was purchased from Millipore/Sigma (Burlington, MA) and utilized at a final concentration of 3 μM. Total RNA was prepared using the Qiagen RNeasy kit (Hilden, Germany), which was then used to generate cDNA using Superscript Reverse Transcriptase II (Invitrogen, Carlsbad, CA). Samples (cDNAs) were analyzed using (Power SYBR Green Master Mix, Applied Biosystems, Foster City, CA) and the ABI Step-One Real-time system (Carlsbad, CA). Expression levels were normalized to Beta-Tubulin, TUBB in gene expression experiments and calculated using 2-4ACT method (Livak et al., 2001). Primer sequences are detailed in Table 1. MDA-MB-468 cells were grown to log phase in DMEM with 10% FBS without antibiotics. BT549 cells were grown to log phase in DMEM with 10% FBS without antibiotics. Cells were transfected with FOXO1 esiRNA (EHU156591 Sigma, St. Louis, MO) or EGFP control esiRNA (EHUEGFP) using Lipofectamine 3000 (utilized only […] reagent, Invitrogen, Carlsbad, CA).

[2] = tested on: MDA-MB-468 cells; test: Gene expression by qRT-PCR (TUBB reference)
Protocol: as §1

[3] = tested on: LN18; test: Colony formation assay (crystal violet); conditions: treated five days
Protocol: (§2) Cell culture and drug treatments. Cell lines were obtained from ATCC (American Type Culture Collection, Manassas, VA) and grown under standard conditions (5% CO2, 10% FBS (fetal bovine serum), with 5% antifungal/antibacterial). Cell lines were tested for Mycoplasma using the MycoAlert Mycoplasma Detection Kit (Lonza, Basel Switzerland, cat: LT07-218); all experiments were done with mycoplasma negative cells. U87MG cells were propagated in MEM (Minimal Essential Medium). BT549 and DBTRG cells were propagated in RPMI (Roswell Park Memorial Institute 1640 Medium). LN18, U118MG, A172 and LN229 cells were propagated in DMEM (Dulbecco's Modified Eagle Medium). Neurosphere/cancer stem cell cultures for U87MG and BT549 cell lines were plated with 40,000 cells per mL in 3D Tumorsphere Medium XF (Sigma cat: C-28070, Burlington, MA). BT549 cancer stem cell cultures were supplemented with 1XB27 XenoFree CTS (Gibco/Thermo Fisher Waltham, MA, USA). AS1842856 was purchased from Calbiochem (Danvers, MA) and utilized at 200 nM, 500 nM and 1 μM final concentrations as indicated. AS1708727 was purchased from MedChem Express (Monmouth Junction, NJ) and was used at 0.5 μM, 1.0 µM and 2.0 μM concentrations. 5-aza-2′-deoxycytidine (5-AZA) was purchased from Millipore/Sigma (Burlington, MA) and utilized at a final concentration of 3 μM. Cells were plated at a density of 2,700 cells per mL and were treated five days with indicated drug. Treatments were investigated in triplicate (in numerous independent experiments) and stained with crystal violet. Plates were aspirated of media then each well was washed with 1.0 mL of 1x phosphate buffered saline (PBS) once before being stained with 1.0 mL of crystal violet stain (0.5% crystal violet in buffered formalin) and incubated for 15 minutes. The stain was aspirated, and wells were washed 3 times with 0.5 mL of 1x PBS. After collections were completed, crystal violet-stained plates were solubilized using 0.5 mL on each well of 10% acetic acid and placed on shaker for 1 hour. Solubilized samples were transferred to 96 well plates and quantified on a spectrophotometer at 590 nm. Quantified plates were analyzed with a Tukey test. Error bars were added using the standard deviation. Cells were plated at 2,700 cells per mL and were treated five days with the indicated drug. Treatments were investigated in triplicate (in numerous independent experiments) and stained with crystal violet. Plates were aspirated of media, then each well was washed with 1.0 mL of 1× phosphate-buffered saline (PBS) once before being stained with 1.0 mL of crystal violet stain (0.5% crystal violet in buffered formalin) and incubated for 15 minutes. The stain was aspirated, and cells were washed three times with 0.5 mL of 1×PBS. After collections were completed, crystal violet-stained plates were solubilized using 0.5 mL on each well of 10% acetic acid and placed on a shaker for 1 hour. Solubilized samples were transferred to 96 well plates and quantified on a spectrophotometer at 590 nm using iMark Microplate Absorbance Reader (Bio-Rad, Hercules, CA). Quantified plates were analyzed with a Tukey Test. Error bars were added using the standard deviation.

[4] = tested on: BT549; test: Colony formation assay (crystal violet); conditions: treated five days
Protocol: as §2

[5] = tested on: MDA-MB-468; test: Colony formation assay (crystal violet); conditions: treated five days

| SMILES | FAS and BIM expression ([1]; 3 μM for 48 hours) | FAS and BIM gene induction, comparison of the two inhibitors [1] | FAS gene expression ([1]; 1 μM treatment for 4 days) | FAS and BIM gene induction, comparison of the two inhibitors [2] | FAS gene expression ([2]; four days, 1 μM for two days) | colony formation [3] | colony formation [4] | colony formation [5] |
| --- | --- | --- | --- | --- | --- | --- | --- | --- |
| Nc1ncn([C@H]2C[C@H](O)[C@@H](CO)O2)c(=O)n1 [5-AZA, 5-aza-2′-deoxycytidine] | induced FAS and BIM |  |  |  |  |  |  |  |
| CN(C(=O)CC1CCCC1)c1ccc(Cl)c(COc2cccc3cnccc23)c1Cl [AS1708727, 2-cyclopentyl-N-[2,4-dichloro-3-(isoquinolin-5-yloxymethyl)phenyl] N-methylacetamide] |  | only induced the FAS gene | increased FAS gene expression | only induced the FAS gene | increased FAS gene expression | reduced colony formation | reduced colony formation | reduced colony formation |
